# In patent publication US11319318B2, “Pyridinones and isoquinolinones as inhibitors of the bromodomain BRD9” (Boehringer Ingelheim International GmbH, priority 2015, dated 2022):
# Target: T1, bromodomain of BRD9 (GST-BRD9 aa 130-259) / H3 K9/14/18/23Ac(1-28) peptide (Homo sapiens, UniProt Q9H8M2)
# T1 construct: The protein corresponding to amino acids 130-259 that contains the bromodomain of BRD9; made in house; host or cells: E. coli
# T1 sequence (Q9H8M2 130-259): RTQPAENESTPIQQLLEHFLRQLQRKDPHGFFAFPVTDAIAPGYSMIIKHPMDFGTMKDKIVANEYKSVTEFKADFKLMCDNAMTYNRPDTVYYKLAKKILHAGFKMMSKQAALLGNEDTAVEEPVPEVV
# Assay: BRD9-H3 tetra-acetylated Peptide Inhibition AlphaScreen
# Format: binding
row,IC50 [nM],SMILES
1,916,CN(C)Cc1ccc(-c2cn(C)c(=O)c3ccccc23)cc1 [II-5]
2,953,CN1CCN(C(=O)c2ccc(-c3cn(C)c(=O)c4cnccc34)cc2)CC1 [II-8]
3,1400,Cn1cc(-c2ccc(C(N)=O)cc2)c2ccncc2c1=O [II-9]
4,42,COc1cc(-c2cn(C)c(=O)c3cncnc23)cc(OC)c1CN1CC(O)C1 [II-11]
5,344,COc1cc(-c2cn(C)c(=O)c3cncnc23)c(OC)cc1CN(C)C [II-12]
6,589,Cn1cc(-c2ccc(C(=O)N3CCNCC3)cc2)c2ncncc2c1=O [II-13]
7,1380,Cn1cc(-c2ccc(C(=O)N3CCNCC3)cc2)c2cccnc2c1=O [II-14]
8,16300,CN1CCN(C(=O)c2ccc(-c3nn(C)c(=O)c4ccccc34)cc2)CC1 [II-17]
9,31,COc1cc(-c2cn(C)c(=O)c3ccc(Cn4cccn4)cc23)cc(OC)c1CN(C)C [II-19]
10,178,CN(C)Cc1ccc(-c2cn(C)c(=O)c3ccc(Cn4cccn4)cc23)cc1 [II-20]
11,2140,COc1cc(-c2cn(C)c(=O)c3ncccc23)c(OC)cc1CN(C)C [II-22]
12,609,COc1cc(-c2cn(C)c(=O)c3ccncc23)c(OC)cc1CN(C)C [II-24]
13,630,COc1cc(-c2cn(C)c(=O)c3cccnc23)c(OC)cc1CN(C)C [II-26]
14,5,"COc1cc(-c2cn(C)c(=O)c3cncnc23)cc(OC)c1CN1CC(N)C1 [II-30, 8-[4-(3-Amino-azetidin-1-ylmethyl)-3,5-dimethoxy-phenyl]-6-methyl-6H-pyrido[4,3-d]pyrimidin-5-one]"
15,11,COc1cc(-c2cn(C)c(=O)c3cnccc23)cc(OC)c1CN1CC(N)C1 [II-31]
16,24,COc1cc(-c2cn(C)c(=O)c3cnccc23)cc(OC)c1CNC1CNC1 [II-32]
17,23,COc1cc(-c2cn(C)c(=O)c3cncnc23)cc(OC)c1CNC1CNC1 [II-33]
18,8,COc1cc(-c2cn(C)c(=O)c3cnccc23)cc(OC)c1CN1CC(O)C1 [II-34]
19,126,"COc1cc(-c2cn(C)c(=O)c3ccccc23)ccc1CN(C)C [II-41, 4-(4-Dimethylaminomethyl-3-methoxy-phenyl)-2-methyl-2H-isoquinolin-1-one]"

row,IC50 [nM],SMILES
1,439,"Cn1cc(-c2ccc(C(=O)N3CCNCC3)cc2)c2ccccc2c1=O [II-42, 2-Methyl-4-[4-(piperazine-1-carbonyl)-phenyl]-2H-isoquinolin-1-one]"
2,890,CN1CCN(Cc2ccc(-c3cn(C)c(=O)c4ccccc34)cc2)CC1 [II-43]
3,917,C[C@@H](N)c1ccc(-c2cn(C)c(=O)c3ccccc23)cc1 [II-44]
4,981,Cc1cc(-c2cn(C)c(=O)c3ccccc23)ccc1C(=O)N1CCN(C)CC1 [II-45]
5,1010,C[C@H](N)c1ccc(-c2cn(C)c(=O)c3ccccc23)cc1 [II-46]
6,1190,Cc1cc(-c2cn(C)c(=O)c3ccccc23)ccc1C(=O)N(C)C [II-47]
7,1550,Cn1cc(-c2ccc(CN)cc2)c2ccccc2c1=O [II-48]
8,3140,Cc1cc(-c2cn(C)c(=O)c3ccccc23)ccc1C(N)=O [II-49]
9,4850,CN1CCN(C(=O)c2ccc(-c3cn(C)c(=O)c4ncccc34)cc2)CC1 [II-50]
10,5270,CN1CCN(C(=O)c2ccc(-c3cn(C)c(=O)c4cncnc34)cc2)CC1 [II-51]
11,39,"COc1cc(-c2cn(C)c(=O)c3[nH]ccc23)ccc1CN1C[C@H]2C[C@@H]1CN2C [III-2, 4-[3-Methoxy-4-((1R,4R)-5-methyl-2,5-diaza-bicyclo[2.2.1]hept-2-ylmethyl)-phenyl]-6-methyl-1,6-dihydro-pyrrolo[2,3-c]pyridin-7-one]"
12,46,COc1cc(-c2cn(C)c(=O)c3[nH]ccc23)ccc1CN1C[C@@H]2CC1CN2 [III-3]
13,62,COc1cc(-c2cn(C)c(=O)c3[nH]ccc23)ccc1CN1C[C@@H]2CC1CN2C [III-4]
14,68,Cc1cc(-c2cn(C)c(=O)c3[nH]ccc23)ccc1C(=O)N1CCNCC1 [III-5]
15,81,Cn1cc(-c2ccc(C(=O)N3CCNCC3)cc2)c2cc[nH]c2c1=O [III-6]
16,95,COc1cc(-c2cn(C)c(=O)c3[nH]ccc23)ccc1C(=O)N1CCN(C)CC1 [III-7]
17,340,Cc1cc(-c2cn(C)c(=O)c3[nH]ccc23)ccc1C(=O)N1CCN(C)CC1 [III-8]
18,391,CN1CCN(C(=O)c2ccc(-c3cn(C)c(=O)c4[nH]ccc34)cc2)CC1 [III-9]
19,487,Cn1cc(-c2ccc(C(=O)N3CCC3)cc2)c2cc[nH]c2c1=O [III-10]

# Target: T2, bromodomain of BRD9 (GST fusion) / acetylated histone H4 peptide (BET Bromodomain Ligand) (Homo sapiens, UniProt Q9H8M2)
# T2 construct: A GST fusion protein of the bromodomain of BRD9; purchased BPS Biosciences #32519
# T2 sequence (Q9H8M2 136-240 limits assumed): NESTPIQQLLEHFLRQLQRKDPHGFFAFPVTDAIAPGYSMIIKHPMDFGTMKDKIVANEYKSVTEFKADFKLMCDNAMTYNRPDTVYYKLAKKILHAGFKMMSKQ
# Assay: BRD9-H4 Tetraacetylated Peptide Inhibition AlphaScreen
# Format: binding
# From the text: BRD9-H4 Tetraacetylated Peptide Inhibition AlphaScreen
# This assay is used to identify compounds which inhibit the interaction of the bromodomain of BRD9 with a tetra-acetylated peptide based on the sequence of histone H4 (termed the “BET Bromodomain ligand” as purchased from BPS Biosciences).
# A GST fusion protein of the bromodomain of BRD9 and an acetylated histone H4 peptide (the “BET Bromodomain Ligand” are purchased as part of the BRD9 Inhibitor Screening Assay Kit at BPS Biosciences (Cat. Number: #32519)
# AlphaScreen Beads (Perkin Elmer):
# AlphaLISA Glutathione Acceptor Beads
# AlphaScreen Streptavidin Donor Beads
# Assay plates: Proxiplate-384 PLUS, white (PerkinElmer)
# The assay is done in a darkened room below 100 Lux.
# Compounds are dispensed onto assay plates using an Access Labcyte Workstation with the Labcyte Echo 550 from a DMSO solution. For the chosen highest concentration of 100 μM, 150 nl of compound solution are transferred from a 10 mM DMSO solution. A series of 11 concentrations is transferred for each compound at which each concentration is five-fold lower than the previous one (i.e. 100 μM, 20 μM, 4 μM, 0.8 μM, etc). DMSO is added such that every well has a total of 150 nl of DMSO.
# 15 μl of the resulting mix are added to the assay plates that contain 150 nl of the compounds. After 60 min at room temperature the signal is measured in a PerkinElmer Envision HTS Multilabel Reader using the AlphaScreen specifications from PerkinElmer.
# Each plate contains negative controls where biotinylated BET Bromodomain Ligand and GST-BRD9 are left out and replaced by assay buffer. Negative control values are entered as low basis value when using the software GraphPad Prism for calculations.
row,IC50 [nM],SMILES
1,172,Cc1cc(-c2ccc(C(=O)N3CCN(C)CC3)cc2)cn(C)c1=O [Compound I-9]
2,109,Cc1cc(-c2ccc(CN3CCOCC3)cc2)cn(C)c1=O [Compound I-14]
3,279,Cc1cc(-c2ccc(C(=O)N3CCN(C)CC3)c(F)c2)cn(C)c1=O [Compound I-15]
4,568,Cc1cc(-c2cccc(OC(F)(F)F)c2)cn(C)c1=O [Compound I-16]
5,113,Cc1c(-c2ccc(C(=O)N3CCN(C)CC3)cc2)cn(C)c(=O)c1C [Compound I-18]
6,333,Cc1ccc(-c2cn(C)c(=O)c(C)c2C)cc1N [Compound I-19]
7,609,"Cc1ccc(-c2cc(C)c(=O)n(C)c2)cc1NS(C)(=O)=O [Compound I-23, N-[5-(1,5-Dimethyl-6-oxo-1,6-dihydro-pyridin-3-yl)-2-methyl-phenyl]-methanesulfonamide]"
8,3310,CCn1cc(-c2ccc(C)c(NS(C)(=O)=O)c2)cc(C)c1=O [Compound I-24]
9,6580,Cc1ccc(-c2cn(C)c(=O)c(C)n2)cc1NS(C)(=O)=O [Compound I-25]
10,2560,Cc1ccc(-c2cc(C)c(=O)n(C)n2)cc1NS(C)(=O)=O [Compound I-26]
11,705,CN1CCN(C(=O)c2ccc(-c3cc(C(F)F)c(=O)n(C)c3)cc2)CC1 [Compound I-27]
12,5120,Cc1ccc(-c2cc(C)c(=O)n(C3CC3)c2)cc1NS(C)(=O)=O [Compound I-28]
13,4220,Cc1ccc(-c2cc(N)c(=O)n(C)c2)cc1NS(C)(=O)=O [Compound I-29]
14,444,"Cc1cc(-c2ccc(C(=O)NC3CCN(C)CC3)cc2)cn(C)c1=O [Compound I-30, 4-(1,5-Dimethyl-6-oxo-1,6-dihydro-pyridin-3-yl)-N-(1-methyl-piperidin-4-yl)-benzamide]"
15,2030,"CNc1cc(-c2ccc(C)c(NS(C)(=O)=O)c2)cn(C)c1=O [Compound I-32, N-[2-Methyl-5-(1-methyl-5-methylamino-6-oxo-1,6-dihydro-pyridin-3-yl)-phenyl]-methanesulfonamide]"
16,22,"Cc1cc(-c2cc(C)c(=O)n(C)c2)ccc1CN1CCNCC1 [Compound I-33, 1,3-Dimethyl-5-(3-methyl-4-piperazin-1-ylmethyl-phenyl)-1H-pyridin-2-one]"
17,47,Cc1cc(-c2cc(C)c(=O)n(C)c2)ccc1CN(C)C [Compound I-35]
18,42,CNCc1ccc(-c2cc(C)c(=O)n(C)c2)cc1C [Compound I-36]
19,34,"Cc1cc(-c2ccc(C(=O)N3CCNCC3)cc2)cn(C)c1=O [Compound I-37, 1,3-Dimethyl-5-[4-(piperazine-1-carbonyl)-phenyl]-1H-pyridin-2-one]"
20,256,Cc1cc(-c2ccc(C(=O)N3CC4CCC3C4)cc2)cn(C)c1=O (stereo not shown) [Compound I-38]
21,294,Cc1cc(-c2ccc(C(=O)N3CC(O)C3)cc2)cn(C)c1=O [Compound I-39]
22,496,Cc1cc(-c2ccc(C(=O)N3CCCC3)cc2)cn(C)c1=O [Compound I-40]
23,470,"Cc1ccc(-c2cc(C)c(=O)n(C)c2)cc1NCc1cccnc1 [Compound I-42, 1,3-Dimethyl-5-{4-methyl-3-[(pyridin-3-ylmethyl)-amino]-phenyl}-1H-pyridin-2-one]"
24,65,"CN1CCN(C(=O)c2ccc(-c3cc(I)c(=O)n(C)c3)cc2)CC1 [Compound I-43, 3-Iodo-1-methyl-5-[4-(4-methyl-piperazine-1-carbonyl)-phenyl]-1H-pyridin-2-one]"
25,508,CN1CCN(C(=O)c2ccc(-c3cc(Br)c(=O)n(C)c3)cc2)CC1 [Compound I-44]

row,SMILES,IC50 [nM]
1,Cc1cc(-c2cc(C)c(=O)n(C)c2)ccc1CN1CCN(C)CC1 [Compound I-34],17
